Here are results for 20 compounds from ChEMBL document CHEMBL2169808, “Discovery of pyrazole carboxylic acids as potent inhibitors of rat long chain L-2-hydroxy acid oxidase” (Bioorg Med Chem Lett, 2012).

Where only a bound is given, the exact number is not on record here.

The target of experiment [1] is T1, 2-Hydroxyacid oxidase 2 (Rattus norvegicus) (UniProt Q07523).
T1 sequence (whole entry): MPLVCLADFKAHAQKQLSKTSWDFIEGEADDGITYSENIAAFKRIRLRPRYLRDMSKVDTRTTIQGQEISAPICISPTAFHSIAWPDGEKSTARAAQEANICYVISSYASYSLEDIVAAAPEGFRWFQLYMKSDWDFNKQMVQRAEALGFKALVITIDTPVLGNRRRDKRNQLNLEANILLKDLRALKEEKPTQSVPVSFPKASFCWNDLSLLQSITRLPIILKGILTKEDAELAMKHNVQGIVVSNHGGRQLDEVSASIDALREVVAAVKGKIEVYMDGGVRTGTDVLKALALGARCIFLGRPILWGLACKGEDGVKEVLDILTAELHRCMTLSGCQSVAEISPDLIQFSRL
Nature of the experiment: Inhibition of rat Hao2-mediated oxidation of 2-hydroxyoctanoic acid assessed as proportionate release of H2O2 at 10 uM.

The target in experiment [2] is T2, 2-Hydroxyacid oxidase 2 (Homo sapiens) (UniProt Q9NYQ3).
T2 sequence (whole entry): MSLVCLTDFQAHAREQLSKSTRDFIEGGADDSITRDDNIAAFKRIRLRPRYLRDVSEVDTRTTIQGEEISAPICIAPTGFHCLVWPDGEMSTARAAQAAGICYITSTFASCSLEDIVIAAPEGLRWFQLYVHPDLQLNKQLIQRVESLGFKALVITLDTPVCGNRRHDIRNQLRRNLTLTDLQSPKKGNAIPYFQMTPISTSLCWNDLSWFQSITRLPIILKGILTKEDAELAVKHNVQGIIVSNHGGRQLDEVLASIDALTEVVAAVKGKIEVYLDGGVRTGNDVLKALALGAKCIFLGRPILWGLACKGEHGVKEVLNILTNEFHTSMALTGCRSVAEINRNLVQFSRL
Nature of the experiment: Inhibition of human Hao2-mediated oxidation of 2-hydroxyoctanoic acid assessed as proportionate release of H2O2 at 10 uM.

The target in experiment [3] is T1, 2-Hydroxyacid oxidase 2 (Rattus norvegicus). Nature of the experiment: Inhibition of rat Hao2-mediated oxidation of 2-hydroxyoctanoic acid assessed as proportionate release of H2O2 at 1 uM.
The species entered for the next experiment is Rattus norvegicus. Nature of the experiment: Selectivity ratio of IC50 for rat Hao1 to IC50 for rat Hao2.
Experiment [4] addresses T2, 2-Hydroxyacid oxidase 2 (Homo sapiens). Nature of the experiment: Inhibition of human Hao2-mediated oxidation of 2-hydroxyoctanoic acid assessed as proportionate release of H2O2 at 1 uM.
The target in experiment [5] is T3, 2-Hydroxyacid oxidase 2 (Homo sapiens, UniProt Q9NYQ3).
T3 sequence (Q9NYQ3 whole entry): T2 sequence (whole entry)
Nature of the experiment: Inhibition of human Hao2-mediated oxidation of 2-hydroxyoctanoic acid assessed as proportionate release of H2O2.

The target of experiment [6] is T4, 2-Hydroxyacid oxidase 2 (Rattus norvegicus, UniProt Q07523).
T4 sequence (Q07523 whole entry): T1 sequence (whole entry)
Nature of the experiment: Inhibition of rat Hao2-mediated oxidation of 2-hydroxyoctanoic acid assessed as proportionate release of H2O2.

Usually inhibition stands for the percentage by which the read-out fell short of the control. For the compound `Cc1n[nH]c(C(=O)O)c1Cc1cc2ccccc2o1`, the inhibition amounted to 87% in experiment [1], 66% in experiment [2], 47% in experiment [3] and 26% in experiment [4]. For the same compound, the Ratio IC50 in the experiment filed under Rattus norvegicus is more than 150.
For `Cc1n[nH]c(C(=O)O)c1Cc1ccc(C(=O)O)cc1`, in that order: 69%, 22%, 40%, 3% and more than 150.
For `Cc1n[nH]c(C(=O)O)c1Cc1ccc(C#N)cc1`, in that order: 85%, 6%, 33%, 0% and more than 150.
Turning to `Cc1n[nH]c(C(=O)O)c1-c1ccc(F)cc1`, the values for the inhibition in experiment [2], in experiment [3] and in experiment [4] were 13%, 1% and 3%, respectively. Moreover, the Ratio IC50 in the experiment listed under Rattus norvegicus was more than 150.
Consider `Cc1n[nH]c(C(=O)Nc2nnn[nH]2)c1Cc1cccc(-c2ccc(F)cc2)c1`, for which the inhibition turned out to be 9% in experiment [1], 0% in experiment [2], 0% in experiment [3] and 0% in experiment [4].
In the case of `Cc1n[nH]c(C(=O)O)c1Cc1ccccc1Oc1ccccc1`, the inhibition in experiment [1] turned out to be 69%; in experiment [2] it was 49%; in experiment [3], 10%; in experiment [4], 9%. In the experiment filed under Rattus norvegicus, the Ratio IC50 was more than 150.
For the compound `Cc1n[nH]c(C(=O)O)c1Cc1cccc(C(=O)O)c1`, the inhibition in experiment [1] turned out to be 60%; in experiment [2], 0%; in experiment [3], 7%; in experiment [4], 3%. In addition, in the experiment listed under Rattus norvegicus, the Ratio IC50 was more than 150.
In the case of `CNC(=O)c1[nH]nc(C)c1Cc1cccc(-c2ccc(F)cc2)c1`, the inhibition came to 53% in experiment [1], 19% in experiment [2], 9% in experiment [3] and 7% in experiment [4].
For `Cc1nn(C)c(C(=O)O)c1Cc1cccc(-c2ccc(F)cc2)c1` the same measures were 10%, 3%, 4% and 5%.
As a reminder, the IC50 is the concentration that gives 50% inhibition. `Cc1n[nH]c(C(=O)O)c1-c1cccc(-c2ccc(F)cc2)c1`: the IC50 on 2-Hydroxyacid oxidase 2 [5] is 950 nM. Besides, the results for the inhibition in experiment [1] and in experiment [3] were 79% and 35%, respectively.
Consider `Cc1n[nH]c(C(=O)NS(C)(=O)=O)c1Cc1cccc(-c2ccc(F)cc2)c1`, for which the inhibition in experiment [1] amounted to 3%; in experiment [2] it was 8%; in experiment [3] it was 0%; in experiment [4] it was 8%.
Consider `Cc1n[nH]c(C(=O)O)c1Cc1ccc2ccccc2c1`, for which, on 2-Hydroxyacid oxidase 2 [6], the IC50 was 1100 nM. In addition, the figures for the inhibition in experiment [2] and in experiment [4] were 12% and 8%, respectively. Further, in the experiment filed under Rattus norvegicus, the Ratio IC50 was more than 150.
For the compound `Cc1n[nH]c(C(=O)O)c1Cc1ccccc1-c1ccc(F)cc1`, the inhibition was found to be 73% in experiment [1], 56% in experiment [2], 21% in experiment [3] and 11% in experiment [4]. Also, the Ratio IC50 in the experiment listed under Rattus norvegicus was more than 150.
Turning to `Cc1n[nH]c(C(=O)O)c1Cc1ccc2ccccc2n1`, at 2-Hydroxyacid oxidase 2 [6], the IC50 was found to be 1700 nM. In addition, the inhibition stood at 18% in experiment [2] and 2% in experiment [4]. Also, in the experiment listed under Rattus norvegicus, the Ratio IC50 is more than 150.
Consider `Cc1n[nH]c(C(=O)O)c1-c1ccc(-c2ccc(F)cc2)cc1`, for which the inhibition came to 65% in experiment [1], 55% in experiment [2], 13% in experiment [3] and 19% in experiment [4]. Also, in the experiment listed under Rattus norvegicus, the Ratio IC50 is more than 150.
For `Cc1n[nH]c(C(=O)O)c1CCc1ccc(F)cc1`, the inhibition in experiment [1] was 81%; in experiment [2], 16%; in experiment [3] it was 31%; in experiment [4] it was 5%. The Ratio IC50 in the experiment filed under Rattus norvegicus was more than 150.
For the compound `Cc1n[nH]c(C(=O)O)c1Cc1cccc(-c2ccncc2)c1`, the IC50 on 2-Hydroxyacid oxidase 2 [6] came to 300 nM. The figures for the inhibition in experiment [2] and in experiment [4] were 49% and 13%, respectively. For the same compound, the Ratio IC50 in the experiment filed under Rattus norvegicus is more than 150.
Consider `Cc1c(Cc2cccc(-c3ccc(F)cc3)c2)c(C(=O)O)nn1C`, for which the inhibition in experiment [1] was determined as 57%; in experiment [2], 4%; in experiment [3] it was 12%; in experiment [4], 2%.
As to `Cc1n[nH]c(C(=O)O)c1Cc1cccc(F)c1`, the IC50 on 2-Hydroxyacid oxidase 2 [6] came out at 200 nM. Besides, the figures for the inhibition in experiment [2] and in experiment [4] were 13% and 1%, respectively. In addition, the Ratio IC50 in the experiment listed under Rattus norvegicus is more than 150.
As to `Cc1n[nH]c(C(=O)O)c1Cc1ccc(C(F)(F)F)cc1`, the inhibition in experiment [1] turned out to be 71%; in experiment [2] it was 12%; in experiment [3], 35%; in experiment [4] it was 9%. Also, the Ratio IC50 in the experiment listed under Rattus norvegicus is more than 150.
